Results from US20080009532A1, “Antimicrobially Finished Solid Preparations” (priority 2005, published 2008).

Test system: mixture of bacterial species: Pseudomonas aeruginosa, Pseudomonas fluorescens, Pseudomonas oleovorans, Pseudomonas rubescens, Pseudomonas stutzeri, Alcaligenes …
Assay: Microbiological stress test (preservation stress test) in calcium carbonate slurry
Type: cell-based
Conditions: calcium carbonate slurry (solids 70-75%), 3 days 60° C. pre-stress, weekly contamination
Procedure: Microbiological Stress Test The microbiological stress test examines the susceptibility of water-based systems to microbial attack and the efficacy of preservatives. To this end, defined concentrations of the preservatives are incorporated into the water-based systems. To simulate reality-like conditions, depending on the medium to be examined, the sample may be stored at elevated temperatures (for example for 7 days at 40° C., for 3 days at 60° C. or the like) prior to carrying out the actual preservation test, in order to evaluate the preservatives to be tested under conditions which are as realistic as possible. After the preliminary work has been concluded, there is, at weekly intervals, a contamination with microorganisms of a defined type over a test period of at most 6 weeks. 2-3 and 7 days after each contamination it is established by germ number determination, whether there has been a complete kill or at least an inhibition of proliferation of the microorganisms introduced, compared to the non-preserved control samples. On account of the microorganism populations known to predominate in mineral suspensions and dispersions, for the experiment, a mixture of the following bacterial species was used for the test: Pseudomonas aeruginosa Pseudomonas fluorescens Pseudomonas oleovorans Pseudomonas rubescens Pseudomonas stutzeri Alcaligenes faecalis Citrobacter freundii Corynebacterium sp. Very good efficacy is achieved when the preserved samples effect a kill of the microorganisms introduced even after 6 contamination cycles. […] Using a calcium carbonate slurry (solids content 70-75%), a preservation stress test was carried out in accordance with the above scheme. After incorporation of the respective biocide products at the stated concentrations, the samples were exposed to thermal stress at 60° C. for 3 days in order to identify unstable active compound components in the biocide products even at this phase of the experiment by subsequent loss of activity.

O=c1[nH]sc2ccccc12 [benzisothiazolinone, 1,2-benzisothiazolin-3-one]
spoilt: Preservation state Week 2 (100 ppm) | Preservation state Week 3 (100 ppm) | Preservation state Week 4 (100 ppm) | Preservation state Week 5 (100 ppm) | Preservation state Week 6 (100 ppm) | Preservation state Week 3 (150 ppm) | Preservation state Week 4 (150 ppm) | Preservation state Week 5 (150 ppm) | Preservation state Week 6 (150 ppm) | Preservation state Week 4 (200 ppm) | Preservation state Week 5 (200 ppm) | Preservation state Week 6 (200 ppm)
ok: Preservation state Week 1 (100 ppm) | Preservation state Week 1 (150 ppm) | Preservation state Week 2 (150 ppm) | Preservation state Week 1 (200 ppm) | Preservation state Week 2 (200 ppm) | Preservation state Week 3 (200 ppm)
